Test results published in ChEMBL document CHEMBL5649167, “The SUV4-20 inhibitor A-196 verifies a role for epigenetics in genomic integrity” (Nat Chem Biol, 2017).
Activity calls are given as the source filed them. No cut-off for these calls is given here.

Experiments:
[1] = molecular target: Adenosine receptor A2a (Homo sapiens) (UniProt P29274); test: Inhibition of human Adenosine receptor A2a at 10 uM relative to control
[2] = molecular target: 5-hydroxytryptamine receptor 5A (Homo sapiens) (UniProt P47898); test: Inhibition of human HTR5A expressed in Cricetulus griseus Flp-In-CHO cells at 10 uM relative to control; type: cell-based
[3] = molecular target: T1, 5-hydroxytryptamine receptor 1A (Homo sapiens) (UniProt P08908); test: Inhibition of human 5-HT1A at 10 uM relative to control
T1 sequence (whole entry): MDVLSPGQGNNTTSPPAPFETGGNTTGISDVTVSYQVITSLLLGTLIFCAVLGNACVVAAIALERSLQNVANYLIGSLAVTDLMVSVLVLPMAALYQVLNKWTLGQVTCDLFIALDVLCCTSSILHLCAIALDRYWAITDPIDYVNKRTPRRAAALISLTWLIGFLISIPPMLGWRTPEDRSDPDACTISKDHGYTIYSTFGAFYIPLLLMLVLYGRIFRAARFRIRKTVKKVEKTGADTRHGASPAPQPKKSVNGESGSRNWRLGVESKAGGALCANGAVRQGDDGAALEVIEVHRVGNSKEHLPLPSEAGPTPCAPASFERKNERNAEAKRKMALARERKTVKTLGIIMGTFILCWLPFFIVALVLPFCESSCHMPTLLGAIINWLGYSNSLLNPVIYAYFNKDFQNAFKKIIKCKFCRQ

B-cell [4] = test: Induction of DNA repair in mouse B cells assessed as inhibition in H4K20me2 level at 1 to 10 uM incubated for 96 hrs by western blot analysis; type: functional, cell-based; conditions: dose 1-10 µM
Rattus norvegicus = species: Rattus norvegicus; test: Inhibition of Rat Somatostatin at 10 uM relative to control
[5] = molecular target: Galanin receptor type 2 (Homo sapiens) (UniProt O43603); test: Inhibition of human GAL2 at 10 uM relative to control
[6] = molecular target: Sodium-dependent dopamine transporter (Homo sapiens) (UniProt Q01959); test: Inhibition of human Sodium-dependent dopamine transporter at 10 uM relative to control
[7] = molecular target: Histamine H1 receptor (Homo sapiens) (UniProt P35367); test: Inhibition of human histamine H1 receptor expressed in stable HEK cells at 10 uM relative to control; type: cell-based
Embryonic stem cell = test: Antiproliferative activity against mouse Embryonic stem cell assessed as […] in H4K20me3 at 10 uM incubated for 3 days by immunofluorescence analysis; type: functional, cell-based; conditions: time 3.0 day
[8] = molecular target: Prostaglandin E2 receptor EP4 subtype (Homo sapiens) (UniProt P35408); test: Inhibition of human Prostanoid EP4 receptor at 10 uM relative to control
[9] = molecular target: 5-hydroxytryptamine receptor 6 (Homo sapiens) (UniProt P50406); test: Inhibition of human 5-HT6 expressed in stable HEK cells at 10 uM relative to control; type: cell-based
5-hydroxytryptamine receptor 6 (Homo sapiens), sequence (P50406 whole entry): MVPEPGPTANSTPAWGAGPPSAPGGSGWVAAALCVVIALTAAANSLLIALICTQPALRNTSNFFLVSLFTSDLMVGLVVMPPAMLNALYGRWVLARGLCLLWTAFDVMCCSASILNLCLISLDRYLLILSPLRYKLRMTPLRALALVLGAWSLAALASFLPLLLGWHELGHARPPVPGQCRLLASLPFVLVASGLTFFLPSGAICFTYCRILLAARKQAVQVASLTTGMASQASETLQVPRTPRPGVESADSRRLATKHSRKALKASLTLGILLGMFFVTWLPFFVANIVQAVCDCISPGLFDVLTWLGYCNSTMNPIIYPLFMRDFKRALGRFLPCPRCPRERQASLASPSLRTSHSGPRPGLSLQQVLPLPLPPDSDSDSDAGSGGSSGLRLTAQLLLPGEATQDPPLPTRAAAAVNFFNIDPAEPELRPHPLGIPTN

[10] = molecular target: Beta-1 adrenergic receptor (Homo sapiens) (UniProt P08588); test: Inhibition of human Beta-1 adrenoceptor at 10 uM relative to control
[11] = molecular target: Histamine H3 receptor (Homo sapiens) (UniProt Q9Y5N1); test: Inhibition of human Histamine H3 receptor expressed in human Flp-In-293 cells at 10 uM relative to control; type: cell-based
Histamine H3 receptor (Homo sapiens), sequence (Q9Y5N1 whole entry): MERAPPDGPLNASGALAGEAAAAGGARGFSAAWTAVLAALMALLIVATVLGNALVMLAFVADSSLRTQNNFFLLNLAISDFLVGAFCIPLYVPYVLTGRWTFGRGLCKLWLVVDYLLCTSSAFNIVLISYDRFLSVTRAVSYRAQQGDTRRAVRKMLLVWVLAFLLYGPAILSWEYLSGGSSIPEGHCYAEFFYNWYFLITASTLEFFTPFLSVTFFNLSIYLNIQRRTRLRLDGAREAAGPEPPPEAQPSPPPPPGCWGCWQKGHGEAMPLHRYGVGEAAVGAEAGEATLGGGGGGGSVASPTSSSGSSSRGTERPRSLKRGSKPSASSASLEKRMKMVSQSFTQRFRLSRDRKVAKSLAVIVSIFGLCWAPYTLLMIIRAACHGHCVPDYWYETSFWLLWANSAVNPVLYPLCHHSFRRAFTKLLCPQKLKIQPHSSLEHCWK

[12] = molecular target: Mu-type opioid receptor (Homo sapiens) (UniProt P35372); test: Inhibition of human Mu-type opioid receptor expressed in stable HEK cells at 10 uM relative to control; type: cell-based
Mu-type opioid receptor (Homo sapiens), sequence (P35372 whole entry): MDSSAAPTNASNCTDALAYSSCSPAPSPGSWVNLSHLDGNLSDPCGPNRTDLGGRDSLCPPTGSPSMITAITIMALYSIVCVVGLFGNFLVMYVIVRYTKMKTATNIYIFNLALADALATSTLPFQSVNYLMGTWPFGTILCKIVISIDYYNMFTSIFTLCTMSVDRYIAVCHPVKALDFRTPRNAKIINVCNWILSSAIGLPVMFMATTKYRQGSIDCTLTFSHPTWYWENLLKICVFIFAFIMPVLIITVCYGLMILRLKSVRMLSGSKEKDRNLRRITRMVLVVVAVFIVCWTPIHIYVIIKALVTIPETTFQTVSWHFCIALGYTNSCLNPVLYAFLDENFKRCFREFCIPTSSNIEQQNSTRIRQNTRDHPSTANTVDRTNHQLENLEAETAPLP

[13] = molecular target: D(2) dopamine receptor (Homo sapiens) (UniProt P14416); test: Inhibition of human D(2) dopamine receptor expressed in stable human fibroblast cells at 10 uM relative to control; type: cell-based
[14] = molecular target: T2, Muscarinic acetylcholine receptor M1 (Homo sapiens) (UniProt P11229); test: Inhibition of human Muscarinic acetylcholine receptor M1 expressed in stable Cricetulus griseus CHO cells at 10 uM relative to control; type: cell-based
T2 sequence (whole entry): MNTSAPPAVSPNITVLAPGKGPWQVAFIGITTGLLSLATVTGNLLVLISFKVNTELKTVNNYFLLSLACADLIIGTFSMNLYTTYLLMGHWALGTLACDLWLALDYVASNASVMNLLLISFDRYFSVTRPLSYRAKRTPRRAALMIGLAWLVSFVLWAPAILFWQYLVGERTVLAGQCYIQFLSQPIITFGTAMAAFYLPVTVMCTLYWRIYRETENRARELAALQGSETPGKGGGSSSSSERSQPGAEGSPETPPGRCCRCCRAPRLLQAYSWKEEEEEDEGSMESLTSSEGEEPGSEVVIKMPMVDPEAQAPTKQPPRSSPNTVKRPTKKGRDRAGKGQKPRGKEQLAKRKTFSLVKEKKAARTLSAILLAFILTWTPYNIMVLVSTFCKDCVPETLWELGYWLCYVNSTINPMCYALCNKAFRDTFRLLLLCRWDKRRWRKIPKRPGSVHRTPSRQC

[15] = molecular target: D(3) dopamine receptor (Homo sapiens) (UniProt P35462); test: Inhibition of human D(3) dopamine receptor expressed in HEK293T cells at 10 uM relative to control; type: cell-based
D(3) dopamine receptor (Homo sapiens), sequence (P35462 whole entry): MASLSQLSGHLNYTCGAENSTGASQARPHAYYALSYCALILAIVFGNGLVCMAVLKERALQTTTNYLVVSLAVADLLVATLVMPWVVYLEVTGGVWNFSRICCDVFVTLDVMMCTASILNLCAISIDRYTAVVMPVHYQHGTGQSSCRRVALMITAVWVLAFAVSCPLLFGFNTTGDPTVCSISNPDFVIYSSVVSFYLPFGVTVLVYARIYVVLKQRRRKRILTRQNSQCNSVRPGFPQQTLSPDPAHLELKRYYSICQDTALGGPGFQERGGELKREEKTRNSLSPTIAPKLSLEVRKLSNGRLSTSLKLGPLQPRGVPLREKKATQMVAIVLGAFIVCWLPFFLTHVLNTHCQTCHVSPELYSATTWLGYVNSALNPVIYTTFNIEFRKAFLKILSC

[16] = molecular target: Alpha-2C adrenergic receptor (Homo sapiens) (UniProt P18825); test: Inhibition of human Alpha-2C adrenergic receptor in stable Canis lupus familiaris MDCK cells at 10 uM relative to control; type: cell-based
Alpha-2C adrenergic receptor (Homo sapiens), sequence (P18825 whole entry): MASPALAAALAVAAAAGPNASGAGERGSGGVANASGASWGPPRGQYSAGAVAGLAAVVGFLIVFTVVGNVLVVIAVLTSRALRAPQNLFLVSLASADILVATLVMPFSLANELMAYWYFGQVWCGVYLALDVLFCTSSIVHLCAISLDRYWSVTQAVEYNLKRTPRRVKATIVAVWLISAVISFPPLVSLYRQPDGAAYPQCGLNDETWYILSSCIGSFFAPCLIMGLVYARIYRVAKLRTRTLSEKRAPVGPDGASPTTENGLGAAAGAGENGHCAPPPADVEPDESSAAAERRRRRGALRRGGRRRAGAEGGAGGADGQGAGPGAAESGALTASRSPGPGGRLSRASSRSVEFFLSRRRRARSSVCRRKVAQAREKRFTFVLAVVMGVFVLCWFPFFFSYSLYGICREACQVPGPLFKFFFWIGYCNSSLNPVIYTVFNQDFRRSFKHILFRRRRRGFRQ

B-cell [17] = test: Induction of DNA repair in mouse B cells assessed as inhibition in H4K20me3 level at 1 to 10 uM incubated for 96 hrs by western blot analysis; type: functional, cell-based; conditions: dose 1-10 µM
[18] = molecular target: Muscarinic acetylcholine receptor M5 (Homo sapiens) (UniProt P08912); test: Inhibition of human Muscarinic acetylcholine receptor M5 expressed in stable Cricetulus griseus CHO cells at 10 uM relative to control; type: cell-based
Muscarinic acetylcholine receptor M5 (Homo sapiens), sequence (P08912 whole entry): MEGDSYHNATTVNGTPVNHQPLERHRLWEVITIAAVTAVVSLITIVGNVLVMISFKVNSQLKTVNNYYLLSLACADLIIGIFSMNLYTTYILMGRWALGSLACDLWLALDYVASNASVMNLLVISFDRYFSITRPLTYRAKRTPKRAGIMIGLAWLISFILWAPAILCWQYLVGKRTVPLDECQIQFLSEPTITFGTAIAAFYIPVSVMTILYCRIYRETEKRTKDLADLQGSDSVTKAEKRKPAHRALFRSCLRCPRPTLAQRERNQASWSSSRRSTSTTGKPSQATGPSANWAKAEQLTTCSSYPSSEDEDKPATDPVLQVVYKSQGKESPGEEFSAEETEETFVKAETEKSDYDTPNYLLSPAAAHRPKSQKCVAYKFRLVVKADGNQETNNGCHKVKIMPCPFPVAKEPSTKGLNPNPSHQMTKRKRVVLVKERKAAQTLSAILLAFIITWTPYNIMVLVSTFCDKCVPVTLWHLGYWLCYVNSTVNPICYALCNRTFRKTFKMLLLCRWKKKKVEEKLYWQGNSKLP

[19] = molecular target: 5-hydroxytryptamine receptor 6 (Homo sapiens) (UniProt P50406); test: Inhibition of human 5-HT6 at 10 uM relative to control
[20] = molecular target: T1, 5-hydroxytryptamine receptor 1A (Homo sapiens); test: Inhibition of human 5-HT1A receptor expressed in stable […] cells at 10 uM relative to control; type: cell-based; conditions: HEK293T
Homo sapiens = species: Homo sapiens; test: Inhibition of human Sodium channel site 2 at 10 uM relative to control
[21] = molecular target: D(1A) dopamine receptor (Homo sapiens) (UniProt P21728); test: Inhibition of human D(1A) dopamine receptor expressed in HEK293T cells at 10 uM relative to control; type: cell-based
[22] = molecular target: Vasopressin V1a receptor (Homo sapiens) (UniProt P37288); test: Inhibition of human AVPR V1a at 10 uM relative to control
Vasopressin V1a receptor (Homo sapiens), sequence (P37288 whole entry, looked up): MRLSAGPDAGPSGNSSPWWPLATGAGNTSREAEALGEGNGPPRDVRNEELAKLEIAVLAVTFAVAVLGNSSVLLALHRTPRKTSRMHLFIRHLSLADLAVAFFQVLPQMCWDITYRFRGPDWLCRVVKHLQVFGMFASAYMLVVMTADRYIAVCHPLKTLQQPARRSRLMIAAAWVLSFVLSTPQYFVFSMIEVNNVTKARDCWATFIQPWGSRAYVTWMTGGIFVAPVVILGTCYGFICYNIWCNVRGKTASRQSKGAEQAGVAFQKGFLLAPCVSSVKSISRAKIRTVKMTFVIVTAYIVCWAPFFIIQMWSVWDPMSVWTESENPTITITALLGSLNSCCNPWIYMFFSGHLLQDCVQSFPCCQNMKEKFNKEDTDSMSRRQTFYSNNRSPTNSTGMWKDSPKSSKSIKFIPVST

[23] = molecular target: Melatonin receptor type 1A (Homo sapiens) (UniProt P48039); test: Inhibition of human Melatonin receptor type 1A at 10 uM relative to control
Melatonin receptor type 1A (Homo sapiens), sequence (P48039 whole entry): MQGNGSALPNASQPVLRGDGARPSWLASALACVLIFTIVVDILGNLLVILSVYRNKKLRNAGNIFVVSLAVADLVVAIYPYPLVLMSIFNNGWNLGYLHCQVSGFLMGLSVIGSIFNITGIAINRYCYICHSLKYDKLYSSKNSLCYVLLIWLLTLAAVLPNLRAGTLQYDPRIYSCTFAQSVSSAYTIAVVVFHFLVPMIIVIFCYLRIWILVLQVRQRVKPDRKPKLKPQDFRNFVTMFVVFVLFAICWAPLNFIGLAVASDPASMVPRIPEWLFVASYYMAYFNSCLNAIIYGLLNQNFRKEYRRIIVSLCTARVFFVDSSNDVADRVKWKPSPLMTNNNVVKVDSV

[24] = molecular target: Beta-2 adrenergic receptor (Homo sapiens) (UniProt P07550); test: Inhibition of human Beta-2 adrenergic receptor expressed in human Flp-In-293 cells at 10 uM relative to control; type: cell-based
Beta-2 adrenergic receptor (Homo sapiens), sequence (P07550 whole entry, looked up): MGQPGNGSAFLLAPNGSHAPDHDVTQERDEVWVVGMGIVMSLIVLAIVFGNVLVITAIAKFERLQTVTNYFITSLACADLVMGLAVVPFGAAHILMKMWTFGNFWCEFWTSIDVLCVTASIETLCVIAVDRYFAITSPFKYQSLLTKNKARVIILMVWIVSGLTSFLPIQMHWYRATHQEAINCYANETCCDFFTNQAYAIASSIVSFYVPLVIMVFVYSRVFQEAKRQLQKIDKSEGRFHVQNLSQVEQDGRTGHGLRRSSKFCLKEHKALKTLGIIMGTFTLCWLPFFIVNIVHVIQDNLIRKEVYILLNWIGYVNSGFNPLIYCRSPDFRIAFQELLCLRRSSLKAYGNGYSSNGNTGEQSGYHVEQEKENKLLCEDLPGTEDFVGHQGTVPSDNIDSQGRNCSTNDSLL

[25] = molecular target: Histamine H2 receptor (Homo sapiens) (UniProt P25021); test: Inhibition of human Histamine H2 receptor expressed in stable HEK cells at 10 uM relative to control; type: cell-based
Histamine H2 receptor (Homo sapiens), sequence (P25021 whole entry): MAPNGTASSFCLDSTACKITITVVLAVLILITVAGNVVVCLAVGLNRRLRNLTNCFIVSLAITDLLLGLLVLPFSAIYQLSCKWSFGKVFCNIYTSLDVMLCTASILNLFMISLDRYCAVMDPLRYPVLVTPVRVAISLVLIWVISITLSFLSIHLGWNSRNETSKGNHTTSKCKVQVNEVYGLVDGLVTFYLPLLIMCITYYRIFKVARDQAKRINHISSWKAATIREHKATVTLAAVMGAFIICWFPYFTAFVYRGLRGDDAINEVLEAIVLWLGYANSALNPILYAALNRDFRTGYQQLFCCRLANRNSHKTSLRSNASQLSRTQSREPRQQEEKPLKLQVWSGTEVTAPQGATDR

[26] = molecular target: 5-hydroxytryptamine receptor 2A (Homo sapiens) (UniProt P28223); test: Inhibition of human 5-HT2A receptor expressed in HEK293T cells at 10 uM relative to control; type: cell-based

Adenosine receptor A2a (Homo sapiens), sequence (P29274 whole entry): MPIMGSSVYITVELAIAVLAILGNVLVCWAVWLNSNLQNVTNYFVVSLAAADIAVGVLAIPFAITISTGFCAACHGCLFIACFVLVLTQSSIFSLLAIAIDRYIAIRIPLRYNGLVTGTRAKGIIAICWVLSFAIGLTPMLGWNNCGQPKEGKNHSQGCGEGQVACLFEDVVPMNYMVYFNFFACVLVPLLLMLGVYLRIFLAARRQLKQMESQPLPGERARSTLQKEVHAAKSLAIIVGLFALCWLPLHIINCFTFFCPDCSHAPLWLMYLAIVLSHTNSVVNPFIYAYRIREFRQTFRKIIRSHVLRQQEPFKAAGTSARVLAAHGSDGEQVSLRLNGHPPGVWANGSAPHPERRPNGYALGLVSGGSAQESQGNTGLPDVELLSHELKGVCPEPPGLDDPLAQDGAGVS

For `Clc1cc2c(NC3CCCC3)nnc(-c3ccncc3)c2cc1Cl`, the inhibition [1] was 98%, the inhibition [2] was 5% and the inhibition [3] was 5%. For the same compound, the inhibition (B-cell [4]) was “Active”, the inhibition (Rattus norvegicus) was 2% and the inhibition [5] was 3%. The inhibition [6] was 14%, the inhibition [7] was 17% and the Activity (Embryonic stem cell) was “Active”. It also gave an inhibition [8] of 7%, an inhibition [9] of -2% and an inhibition [10] of 3%. The inhibition [11] was 6%, the inhibition [12] was 11% and the inhibition [13] was -6%. For the same compound, the inhibition [14] was 4%, the inhibition [15] was 1% and the inhibition [16] was 0%. For the same compound, the inhibition (B-cell [17]) was “Active”, the inhibition [18] was -1% and the inhibition [19] was -1%. For the same compound, the inhibition [20] was 6%, the inhibition (Homo sapiens) was 17% and the inhibition [21] was 2%. The inhibition [22] was 4%, the inhibition [23] was 34% and the inhibition [24] was 20%. For the same compound, the inhibition [25] was -1% and the inhibition [26] was 39%.
Compound `O=C(c1nnc(NC2CCCC2)c2cc(Cl)c(Cl)cc12)N1CCC(O)CC1` has an inhibition [1] of 22%, an inhibition [2] of -1% and an inhibition [3] of -1%. For the same compound, the inhibition (B-cell [4]) was “inactive”, the inhibition (Rattus norvegicus) was 5% and the inhibition [5] was -8%. For the same compound, the inhibition [6] was -1%, the inhibition [7] was 2% and the Activity (Embryonic stem cell) was “inactive”. It also gave an inhibition [8] of -2%, an inhibition [9] of -1% and an inhibition [10] of 11%. It also gave an inhibition [11] of -4%, an inhibition [12] of 22% and an inhibition [13] of 39%. The inhibition [14] was -8%, the inhibition [15] was 0% and the inhibition [16] was 4%. The inhibition (B-cell [17]) was “inactive”, the inhibition [18] was -4% and the inhibition [19] was -4%. The inhibition [20] was 12%, the inhibition (Homo sapiens) was -5% and the inhibition [21] was -1%. The inhibition [22] was 96%, the inhibition [23] was 17% and the inhibition [24] was 17%. It also gave an inhibition [25] of -7% and an inhibition [26] of 81%.
